From ChEMBL document CHEMBL3526147, “Tissue distribution and characterization of drug-related material in rats and dogs after repeated oral administration of casopitant” (Drug Metab Dispos, 2011)

What was measured:
Plasma [1] = assay: Drug level in plasma of Sprague-Dawley rat treated with [14C]casopitant mesylate at 60 mg/kg/day, po administered as repeat dose measured after 24 hrs on day 20 by HPLC-MS/MS method relative to [14C]casopitant mesylate radioactivity; format: ADME, organism-based; parameters: dosed compound name [14C]Casopitant, route oral; conditions: in vivo
Plasma [2] = assay: Drug level in plasma of beagle dog treated with [14C]casopitant mesylate at 40 mg/kg/day, po administered as repeat dose measured after 24 hrs on day 14 by HPLC-MS/MS method relative to [14C]casopitant mesylate radioactivity; format: ADME, organism-based, Canis lupus familiaris; parameters: dosed compound name [14C]Casopitant, route oral; conditions: in vivo
[3] = Drug level in myocardium of beagle dog treated with [14C]casopitant mesylate at 40 mg/kg/day, po administered as repeat dose measured after 24 hrs on day 14 by HPLC-MS/MS method relative to [14C]casopitant mesylate radioactivity; format: ADME, organism-based, Canis lupus familiaris; parameters: dosed compound name [14C]Casopitant, route oral; conditions: in vivo
[4] = Drug level in skeletal muscle of beagle dog treated with [14C]casopitant mesylate at 40 mg/kg/day, po administered as repeat dose measured after 24 hrs on day 14 by HPLC-MS/MS method relative to [14C]casopitant mesylate radioactivity; format: ADME, organism-based, Canis lupus familiaris, Muscle tissue; parameters: dosed compound name [14C]Casopitant, route oral; conditions: in vivo
[5] = Drug level in kidney of beagle dog treated with [14C]casopitant mesylate at 40 mg/kg/day, po administered as repeat dose measured after 24 hrs on day 14 by HPLC-MS/MS method relative to [14C]casopitant mesylate radioactivity; format: ADME, organism-based, Canis lupus familiaris; parameters: dosed compound name [14C]Casopitant, route oral; conditions: in vivo
[6] = Drug level in lung of beagle dog treated with [14C]casopitant mesylate at 40 mg/kg/day, po administered as repeat dose measured after 24 hrs on day 14 by HPLC-MS/MS method relative to [14C]casopitant mesylate radioactivity; format: ADME, organism-based, Canis lupus familiaris; parameters: dosed compound name [14C]Casopitant, route oral; conditions: in vivo
Canis familiaris [7] = assay: AUC (0 to t) in beagle dog treated with [14C]casopitant mesylate at 40 mg/kg/day, po administered as repeat dose measured after 26 weeks by HPLC-MS/MS method; format: ADME, organism-based, Canis lupus familiaris, Plasma; parameters: dosed compound name [14C]Casopitant, route oral; conditions: in vivo, 4368 h
Canis familiaris [8] = assay: Cmax in beagle dog treated with [14C]casopitant mesylate at 40 mg/kg/day, po administered as repeat dose measured after 26 weeks by HPLC-MS/MS method; format: ADME, organism-based, Canis lupus familiaris; parameters: dose 40 mg/kg/day, dosed compound name [14C]Casopitant, route oral; conditions: in vivo, 4368 h
Canis familiaris [9] = assay: Tmax in beagle dog treated with [14C]casopitant mesylate at 40 mg/kg/day, po administered as repeat dose measured after 26 weeks by HPLC-MS/MS method; format: ADME, organism-based, Canis lupus familiaris; parameters: dosed compound name [14C]Casopitant, route oral; conditions: in vivo, 4368 h
[10] = Drug level in myocardium of beagle dog treated with [14C]casopitant mesylate at 40 mg/kg/day, po administered as repeat dose measured after 6 weeks by HPLC-MS/MS method; format: ADME, organism-based, Canis lupus familiaris; parameters: dosed compound name [14C]Casopitant, route oral; conditions: in vivo, 1008 h
[11] = Drug level in myocardium of beagle dog treated with [14C]casopitant mesylate at 40 mg/kg/day, po administered as repeat dose measured after 20 weeks by HPLC-MS/MS method; format: ADME, organism-based, Canis lupus familiaris; parameters: dosed compound name [14C]Casopitant, route oral; conditions: in vivo, 3360 h
[12] = Drug level in myocardium of beagle dog treated with [14C]casopitant mesylate at 40 mg/kg/day, po administered as repeat dose measured after 13 weeks by HPLC-MS/MS method; format: ADME, organism-based, Canis lupus familiaris; parameters: dosed compound name [14C]Casopitant, route oral; conditions: in vivo, 2184 h
[13] = Drug level in myocardium of beagle dog treated with [14C]casopitant mesylate at 40 mg/kg/day, po administered as repeat dose measured after 26 weeks by HPLC-MS/MS method; format: ADME, organism-based, Canis lupus familiaris; parameters: dosed compound name [14C]Casopitant, route oral; conditions: in vivo, 4368 h
[14] = Drug level in myocardium of beagle dog treated with [14C]casopitant mesylate at 40 mg/kg/day, po administered as repeat dose measured after 22 weeks post dosing withdrawal by HPLC-MS/MS method; format: ADME, organism-based, Canis lupus familiaris; parameters: dosed compound name [14C]Casopitant, route oral; conditions: in vivo, 3696 h
Plasma [15] = assay: Drug level in beagle dog plasma treated with [14C]casopitant mesylate at 40 mg/kg/day, po administered as repeat dose measured during 24 hrs dosing interval on week 26 by HPLC-MS/MS method; format: ADME, organism-based, Canis lupus familiaris; parameters: dosed compound name [14C]Casopitant, route oral; conditions: in vivo

Structure (SMILES) | Compound recovery (Plasma [1]) | Compound recovery (Plasma [2]; BLD = below limit of detection) | Compound recovery [3] | Compound recovery [4] | Compound recovery [5] | Compound recovery [6] | AUCt (Canis familiaris [7]) | Cmax (Canis familiaris [8]) | Tmax (Canis familiaris [9]) | Compound recovery [10] | Compound recovery [11] | Compound recovery [12] | Compound recovery [13] | Drug concentration in myocardium [14] | Compound recovery (Plasma [2]) | Compound recovery (Plasma [15])
Cc1cc(F)ccc1[C@H]1C[C@@H](NCCN)CCN1C(=O)N(C)[C@H](C)c1cc(C(F)(F)F)cc(C(F)(F)F)c1 | Metabolite not detected | BLD | 3.7% | 2.4% | 4.8% | 2.3% | 1442 ng·h/mL | 65.5 ng/mL | 24 h | 39180 ng/g | 85193 ng/g | 62780 ng/g | 114014 ng/g | 31732 ng/g |  | 
CC(=O)N1CCN([C@H]2CCN(C(=O)N(C)[C@H](C)c3cc(C(F)(F)F)cc(C(F)(F)F)c3)[C@@H](c3ccc(F)cc3C)C2)CC1.CS(=O)(=O)O [CASOPITANT MESYLATE] | 1.5% |  | 3.7% | 2.4% | 7% | 11.9% | 53599 ng·h/mL | 7167 ng/mL | 1 h | 467 ng/g | 2098 ng/g | 1991 ng/g | 889 ng/g | < 50 ng/g | 1.9% | 
CC(=O)N1CCN([C@H]2CCN(C(=O)N(C)[C@H](C)c3cc(C(F)(F)F)cc(C(F)(F)F)c3)[C@@H](c3ccc(F)cc3C)C2)CC1O (some centres not stated) | 0.3% |  | 2.1% | 4.2% | 2.9% | 1.9% | 61603 ng·h/mL | 4357 ng/mL | 4 h | 2041 ng/g | 6554 ng/g | 4516 ng/g | 3686 ng/g | < 50 ng/g | 4.8% | 
Cc1cc(F)ccc1[C@H]1C[C@@H](N2CCNCC2)CCN1C(=O)N(C)[C@H](C)c1cc(C(F)(F)F)cc(C(F)(F)F)c1 | 1.5% |  | 3.4% | 7.6% | 7% | 11.9% | 1803 ng·h/mL | 82 ng/mL | 8 h | 3623 ng/g | 14215 ng/g | 7867 ng/g | 11346 ng/g | < 50 ng/g | 0.8% | metabolite_detected
Cc1cc(F)ccc1[C@H]1C[C@@H](N)CCN1C(=O)N(C)[C@H](C)c1cc(C(F)(F)F)cc(C(F)(F)F)c1 |  |  |  |  |  |  | 22858 ng·h/mL | 1044 ng/mL | 24 h | 29401 ng/g | 52699 ng/g | 39073 ng/g | 58640 ng/g | 408 ng/g |  | metabolite_detected
CC(=O)NCCN[C@H]1CCN(C(=O)N(C)[C@H](C)c2cc(C(F)(F)F)cc(C(F)(F)F)c2)[C@@H](c2ccc(F)cc2C)C1 |  |  |  |  |  |  | 3040 ng·h/mL | 189 ng/mL | 1 h | 2379 ng/g | 9399 ng/g | 5386 ng/g | 6644 ng/g | < 50 ng/g |  | metabolite_detected
C[C@@H](NC(N)=O)c1cc(C(F)(F)F)cc(C(F)(F)F)c1 | 4.6% |  | Metabolite not detected | Metabolite not detected | Metabolite not detected | Metabolite not detected |  |  |  |  |  |  |  |  | Metabolite not detected | 
CC(=O)N1CCN([C@H]2CCN(C(=O)N(C)[C@H](C)c3cc(C(F)(F)F)cc(C(F)(F)F)c3)[C@@H](c3ccc(F)cc3C)C2)CC1=O | 0.2% |  | 0.5% | 1.3% | 1.1% | 0.6% |  |  |  |  |  |  |  |  | 0.9% | 
Cc1cc(F)ccc1[C@H]1C[C@@H](N2CCNC(=O)C2)CCN1C(=O)N(C)[C@H](C)c1cc(C(F)(F)F)cc(C(F)(F)F)c1 | 1.2% |  | 1.6% | 3.5% | 2.2% | 1.2% | 21248 ng·h/mL | 1013 ng/mL | 8 h | 1517 ng/g | 3286 ng/g | 2010 ng/g | 2416 ng/g | < 50 ng/g | 4.1% | metabolite_detected
